Several values for one entry are separate records, joined by “and”; a condition that tells them apart may be missing. Equal entries are not always repeated.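 The compound was tested at five concentrations on cells cultured in 96-well plates, with a 48-hour exposure period. Here, GI50 denotes the concentration required for 50% inhibition of growth. TGI: concentration producing complete growth inhibition.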

The source of these data is PubChem BioAssay (NCI).

Some test systems named below: MALME-3M melanoma; HCT-116 colon; CCRF-CEM leukemia; OVCAR-5 ovarian; SN12C renal; OVCAR-3 ovarian; NCI-H522 lung; SF-539 CNS; SR leukemia; HOP-92 NSCLC.
Common to all, as to test: DTP human tumour cell line panel, 48 h

Consider `O=C(N/N=C/c1ccc(Cl)cc1)c1ccc(C(F)(F)F)nc1Nc1cccc(C(F)(F)F)c1`, for which the GI50 in the assay with MALME-3M melanoma was 3860 nM; in the assay with HCT-116 colon it was 2600 nM; in the assay on CCRF-CEM leukemia, 344 nM; in the assay with OVCAR-5 ovarian, 3200 nM; in the assay on SN12C renal it was 1780 nM; in the assay with OVCAR-3 ovarian, 1110 nM. Moreover, the GI50 is 2800 nM in the assay on NCI-H522 lung, 2110 nM with SF-539 CNS, 879 nM with SR leukemia and 347 nM in the assay with HOP-92 NSCLC. The TGI came out at 23000 nM in the assay with MALME-3M melanoma; 10900 nM in the assay on HCT-116 colon; 3620 nM in the assay with CCRF-CEM leukemia; 13700 nM in the assay on OVCAR-5 ovarian; 10600 nM in the assay with SN12C renal; 6900 nM with OVCAR-3 ovarian. For the same compound, the TGI with NCI-H522 lung came out at 10700 nM; with SF-539 CNS, 6690 nM; in the assay on SR leukemia, 5710 nM; in the assay with HOP-92 NSCLC it was 2710 nM.

For the compound `COc1cc(C=C2C(=O)NC(=O)NC2=O)cc(OC)c1OC`, the TGI in the assay with MALME-3M melanoma, in the assay on HCT-116 colon, with CCRF-CEM leukemia, in the assay on OVCAR-5 ovarian, with SN12C renal and in the assay on OVCAR-3 ovarian was above 100000 nM each time. For the same compound, the TGI in the assay on NCI-H522 lung, in the assay on SF-539 CNS, in the assay with SR leukemia and in the assay with HOP-92 NSCLC was above 100000 nM in each case.

For the compound `COc1ccc(C(=O)C(C(=O)CCC(=O)Nc2cccc(Cl)c2)c2ccc(OC)cc2)cc1` (stereo unspecified), the TGI in the assay with MALME-3M melanoma, in the assay on HCT-116 colon, in the assay with CCRF-CEM leukemia, in the assay with OVCAR-5 ovarian, in the assay with SN12C renal and in the assay on OVCAR-3 ovarian was above 100000 nM in each case. Besides, the TGI with NCI-H522 lung, in the assay with SF-539 CNS, with SR leukemia and in the assay on HOP-92 NSCLC was above 100000 nM in each case.

In the case of `C=C1C(=O)O[C@@H]2/C=C(\C)CC/C=C(/COC(C)=O)C[C@@H](OC(C)=O)[C@@H]12`, the TGI in the assay on MALME-3M melanoma was 8850 nM; with HCT-116 colon it was 14600 nM; in the assay on CCRF-CEM leukemia, 14300 nM; in the assay with OVCAR-5 ovarian, 34600 nM; with SN12C renal it was 24900 nM; in the assay on OVCAR-3 ovarian it was 14200 nM. Further, the TGI in the assay with NCI-H522 lung turned out to be 3200 nM; with SF-539 CNS it was 36300 nM; in the assay with SR leukemia it was 7390 nM; with HOP-92 NSCLC, 21100 nM.

Turning to `COC(=O)C1=CNC=C(C(=O)OC)C1C1=CC(=O)C(C)=CC1=O`, the GI50 in the assay on MALME-3M melanoma was 14100 nM; with HCT-116 colon, 1940 nM; in the assay on CCRF-CEM leukemia, 4300 nM; in the assay with OVCAR-5 ovarian, 17700 nM; in the assay with SN12C renal, 13000 nM; with OVCAR-3 ovarian, 5640 nM. Besides, the GI50 in the assay with NCI-H522 lung is 19800 nM; with SF-539 CNS it was 14900 nM; in the assay with SR leukemia, 9370 nM; with HOP-92 NSCLC, 4650 nM. Further, the TGI in the assay on MALME-3M melanoma worked out at 27500 nM; in the assay on HCT-116 colon, 3790 nM; in the assay on OVCAR-5 ovarian, 31700 nM; in the assay on SN12C renal it was 25800 nM; in the assay with OVCAR-3 ovarian, 22100 nM; in the assay with NCI-H522 lung it was 47200 nM. The results for the TGI in the assay with SF-539 CNS, in the assay with SR leukemia and with HOP-92 NSCLC were 29600 nM, 43500 nM and 15600 nM, respectively.

On to `C1=CC2SSSC2C1` (stereo unspecified), for which the concentration for total growth inhibition (TGI) in the assay on MALME-3M melanoma, with HCT-116 colon, with CCRF-CEM leukemia, in the assay on OVCAR-5 ovarian, in the assay with SN12C renal and in the assay on OVCAR-3 ovarian was above 100000 nM throughout. For the same compound, the TGI with NCI-H522 lung, in the assay on SF-539 CNS, in the assay on SR leukemia and in the assay with HOP-92 NSCLC was above 100000 nM in each case.

`COC1=C(C)C(=O)c2c(c(COC(N)=O)c3n2CC2C3N2C)C1=O` (stereo unspecified): the TGI in the assay on MALME-3M melanoma was 164 nM; in the assay with HCT-116 colon, 64.1 nM; with CCRF-CEM leukemia, 105 nM; in the assay with OVCAR-5 ovarian it was 324 nM; in the assay on SN12C renal, 221 nM; in the assay with OVCAR-3 ovarian, 98.7 nM. The TGI with NCI-H522 lung was 30.4 nM; in the assay with SF-539 CNS, 120 nM; in the assay on SR leukemia it was below 35.4 nM; in the assay on HOP-92 NSCLC it was 453 nM.

Consider `CC(C)n1nc(-c2cc3cc(O)ccc3[nH]2)c2c(N)ncnc21`, for which the GI50 was 26.9 nM in the assay on MALME-3M melanoma; 634 nM in the assay with HCT-116 colon; 345 nM with CCRF-CEM leukemia; 244 nM in the assay on OVCAR-5 ovarian; 175 nM with SN12C renal; 220 nM with OVCAR-3 ovarian. Also, the GI50 in the assay on NCI-H522 lung is 97.4 nM; with SF-539 CNS, 309 nM; with SR leukemia it was 191 nM; in the assay with HOP-92 NSCLC it was 34.4 nM. Besides, the TGI stood at 265 nM with MALME-3M melanoma; 14400 nM in the assay with HCT-116 colon; 4280 nM with CCRF-CEM leukemia; 8980 nM with OVCAR-5 ovarian; 6430 nM with SN12C renal; 2750 nM in the assay on OVCAR-3 ovarian. Moreover, the TGI was found to be 2020 nM with NCI-H522 lung, 2180 nM with SF-539 CNS, 2930 nM with SR leukemia and 483 nM in the assay with HOP-92 NSCLC.

As for `COc1ccc(Cn2cc3c(c2-c2ccccc2)CC(C)(C)c2cnoc2-3)cc1`, the GI50 was 1630 nM with MALME-3M melanoma; 1470 nM in the assay on HCT-116 colon; 2470 nM in the assay on CCRF-CEM leukemia; 4390 nM in the assay on OVCAR-5 ovarian; 4460 nM in the assay on SN12C renal; 662 nM with OVCAR-3 ovarian. In addition, the GI50 in the assay with NCI-H522 lung was 314 nM; in the assay with SF-539 CNS, 2180 nM; with SR leukemia, 483 nM; in the assay on HOP-92 NSCLC, 1960 nM. Moreover, the TGI in the assay on MALME-3M melanoma was above 100000 nM; in the assay with HCT-116 colon, above 100000 nM; in the assay on CCRF-CEM leukemia, above 100000 nM; with OVCAR-5 ovarian, above 100000 nM; in the assay with SN12C renal it was above 100000 nM; in the assay on OVCAR-3 ovarian it was 3280 nM. Moreover, the concentration for total growth inhibition (TGI) in the assay on NCI-H522 lung was 1900 nM; with SF-539 CNS, 6020 nM; in the assay on SR leukemia, above 100000 nM; in the assay with HOP-92 NSCLC it was 32700 nM.

Take `COc1cccc2c1C(=O)c1c(O)c3c(c(O)c1C2=O)C[C@@](O)(C(C)=O)C[C@@H]3OC1OC(C)C(O)C(N)C1Br` (stereo partly specified): the concentration for 50% growth inhibition (GI50) was 21.5 nM with MALME-3M melanoma; 55.4 nM in the assay with OVCAR-5 ovarian; 18 nM in the assay on SN12C renal; 178 nM with OVCAR-3 ovarian; 56.3 nM in the assay with NCI-H522 lung; 41.9 nM with SF-539 CNS. Besides, the GI50 with HOP-92 NSCLC is 60.2 nM. For the same compound, the total growth inhibition concentration (TGI) in the assay with MALME-3M melanoma was 297 nM and 225 nM; with HCT-116 colon, 147 nM and 188 nM; in the assay on CCRF-CEM leukemia, 70 nM and 108 nM; in the assay with OVCAR-5 ovarian it was 663 nM and 704 nM; with SN12C renal, 307 nM and 1120 nM; in the assay with OVCAR-3 ovarian it was 364 nM and 584 nM. Moreover, the TGI with NCI-H522 lung is 449 nM and 324 nM; in the assay on SF-539 CNS, 701 nM and 388 nM; in the assay with SR leukemia it was 18.5 nM; with HOP-92 NSCLC, 422 nM and 474 nM.

For orientation: GI50 means the concentration giving 50% growth inhibition. Broadly, the TGI is the concentration giving total growth inhibition. A high value points to lower sensitivity of the cells.
